Results on seven compounds are retold here after patent US20100227401A1, “MEDIA AND PROCESSES FOR THE EX VIVO PRODUCTION OF MEGAKARYOCYTES FROM HUMAN CD34+ CELLS” (FOOD INDUSTRY RESEARCH AND DEVELOPMENT INSTITUTE, priority 2003, published 2010).

Data set [1] has as its system serum-free expanded CD34^+ cells. Put plainly: Ex vivo Mk induction from serum-free expanded CD34+ cells, 1-week induction, TNC count and Mk count (CD41a+CD61+). It is filed as cell-based, human. The settings on record: preliminary screening of serum substitutes (data not shown). As to the method: Each experiment was repeated at least four times. […] (1978), Statistics for Experimenters: An Introduction to Design, Data Analysis, and Model Building, Wiley, New York). In addition, the statistical significance was determined by an F-test, and the significance of the regression coefficient was analyzed by a t-test. […] After cultivation for 1 week, the cells were collected and subjected to the TNC count as described above and a megakaryocyte count (Mk count) so as to evaluate the ex vivo megakaryocytopoietic effects of the tested serum substitutes and cytokines. The Mk count was conducted by labeling the collected cells with CD41a-FITC and CD61-PE and analyzed according to the operating procedure described in the following section, entitled “4. […] The incubation was terminated by washing three times with 1 mL FACS buffer. Optionally, the first antibody-labeled cells were further incubated with a second antibody conjugated with PE or FITC in the same manner. After washing with FACS buffer, the labeled cells were resuspended in 1 mL FACS buffer and analyzed on a FACSCalibur analyzer (Becton-Dickinson, NJ, USA). The data were analyzed by CellQuest software. A replicate sample incubated with FITC- or PE-conjugated mouse IgG1 was used as an isotype control for specificity. […] SF-Mk as established in Example 1, IMDM+10% FBS, IMDM+2% FBS, […]-VIVO 10, X-VIVO 15, X-VIVO 20,[…], DMEM, RPMI 1640, α-MEM, BME medium, […] medium, and Medium 199, respectively. IMDM+10% FBS, IMDM+2% FBS, […]-VIVO 10, X-VIVO 15, X-VIVO 20,[…], DMEM, RPMI 1640, α-MEM, BME medium, […] medium and Medium 199 were respectively supplemented with the cytokine cocktail (CC) as screened in Example 1. […] After 1-week induction, the Mk number of each group was calculated. […] IMDM supplemented with a serum substitute consisting of 4.9 g/L BSA, 2.72 μg/mL insulin, and 80 μg/mL transferrin (based on the applicants' previous study, unpublished data) and the reference cytokine cocktail as previously reported in Te-Wei Chen et al. (2009), supra; and • (3) FBS group: IMDM supplemented with 10% FBS and the reference cytokine cocktail.

Data set [2] relates to hematopoietic progenitor cells (HPCs). The settings on record: cited from earlier work.
In data set [3] the test system is CD34^+-selected cells. The settings on record: PMP 200 ng/mL; TPO 10 ng/mL, IL-3 10 ng/mL; cited from earlier work.
Where [4] appears, read: mpIL added to growth factor cocktail.

As for `NC(=O)CC[C@H](N)C(=O)O` [L-glutamine], the “effect on ex vivo megakaryocytopoiesis” value in data set [1] was “no effect”.
On the same count and under the same terms, the same measure for `OCCS` [Step 2-ME, 2-mercaptoethanol]: “no effect”; for `CC(=O)C(=O)[O-].[Na+]` [sodium pyruvate]: “no effect”.
Consider insulin, for which, in data set [1], the “effect on ex vivo megakaryocytopoiesis” value was “significantly positive effects”.
Take mpIL: recombinant mpl ligand: in data set [2] (setting [4]), the Mk purity level is given as 80% and the “final yield of Mks” value is given as 4×10^5. The cell number in data set [2] (mpIL alone) is 1.5×10^5 cells.
As to promegapoietin [PMP], the megakaryocytopoietic activity result in data set [3] is reported as “comparable to that achieved with TPO plus IL-3”.
On to transferrin, for which, in data set [1], the “effect on ex vivo megakaryocytopoiesis” value is reported as “significantly positive effects”.
